Several values for one entry are separate records, joined by “and”; a condition that tells them apart may be missing. Equal entries are not always repeated. Where two headings read alike, the source gives them in different places.
How the values were obtained:
[1] = IC50 with and without incubation (enzyme not given); type: biochemical
[2] = molecular target: human α-thrombin (Homo sapiens, UniProt P00734); test: biochemical; type: biochemical; details: read-out: Ki
Method: The inhibition of human α-thrombin was determined by the inhibition of the enzyme catalyzed hydrolysis of three different concentrations of the chromogenic substrate S-2238.
200 μl of sample or buffer and 50 μl of S-2238 were incubated at 37° C. for 1 min and 50 μl of human α-thrombin (0.25 NIHu/ml) was added. The initial rate of inhibited and uninhibited reactions were recorded at 405 nm. The increase in optical density was plotted according to the method of Lineweaver and Burke. The Km and apparent Km were determined and Ki was calculated using the relationship: [formula]

[3] = molecular target: T1, Xa (Homo sapiens, UniProt P00742); test: IC50 against Xa; type: biochemical
T1 construct: Plasmin; Xa; Urokinase
T1 sequence (P00742 41-179 limits assumed): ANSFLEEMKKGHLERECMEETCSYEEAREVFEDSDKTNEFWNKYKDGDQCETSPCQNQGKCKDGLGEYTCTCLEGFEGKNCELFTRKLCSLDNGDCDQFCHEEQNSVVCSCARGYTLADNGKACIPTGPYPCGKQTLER
T1 sequence (P00742 235-488 limits assumed): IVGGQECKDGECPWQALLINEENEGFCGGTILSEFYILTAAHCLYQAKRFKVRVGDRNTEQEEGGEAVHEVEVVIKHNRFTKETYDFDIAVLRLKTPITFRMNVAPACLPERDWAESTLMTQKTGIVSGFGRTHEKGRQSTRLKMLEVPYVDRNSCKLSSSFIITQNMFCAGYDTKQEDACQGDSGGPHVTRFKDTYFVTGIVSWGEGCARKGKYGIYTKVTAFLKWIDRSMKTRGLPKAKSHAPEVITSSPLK

[4] = test system: citrated normal human plasma; test: Activated partial thromboplastin time (APTT) for in vitro samples; type: biochemical
Method: (§1) A volume of 150 μl of citrated (3.2%) normal human plasma was incubated at 37° C. with sample (20 μl) or buffer (20 μl, control) for 1 min. To the solution was added reconstituted “AUTOMATED APTT” (available from Organon Teknika, 0.1 ml). Each solution was activated at 37° C. for 5 min.
(§2) After activation, calcium chloride (0.1 ml, 0.025M, prewarmed at 37° C.) was added and clot detection was timed using a “semiautomated coagulometer” (Nach, Schnicter und Gross).

[5] = test system: bovine thrombin in plasma samples; test: Ex-vivo TT; type: in vivo, New Zealand white rabbits; parameters: key: thrombin (coagulation) time in seconds; details: 1 mg/kg i.v. bolus, rabbit
Method: (§3) A volume of 150 μl of citrated normal human plasma and 20 μl of buffer or sample were warmed at 37° C. for 1 min. Coagulation was started by adding 150 ul of freshly prepared bovine thrombin (5 NIHu/ml saline) and the coagulation time was recorded on a coagulometer.
(§4) A phosphate buffer, pH 7.8, containing 0.1% bovine serum albumine and 0.02% sodium azide was used. The samples were dissolved in DMSO and diluted with the buffer. When no inhibitor was used DMSO was added to the buffer to the same concentration as that used in the samples. The inhibitor concentrations were plotted against the thrombin times in a semilogarithmic graph from which the inhibitor concentration that caused a doubling (40 sec) of the thrombin time was determined.
(§5) Data was obtained as for in-vitro tests, but using plasma samples obtained at 0, 1, 10, 30 and 60 minutes after dosing of 1 mg/kg, i.v. bolus injection in a marginal ear vein in New Zealand white rabbits, which were anaesthetized from a canula in the carotid artery. [drawing 18]

[6] = test system: plasma samples; test: Ex-vivo APTT; type: in vivo, New Zealand white rabbits; parameters: unit not given here; details: 1 mg/kg i.v. bolus, rabbit
Method: as §1, §2, §5

[7] = molecular target: Urokinase (Homo sapiens, UniProt P00749); test: IC50 against urokinase; type: biochemical
[8] = Peripheral blood pressure after intravenous dose; type: in vivo, New Zealand white rabbits; details: 1 mg/kg i.v. dose
Text: […] R. May, C. M. Hero, K. D. Butler, C. P. Page, JOURNAL OF PHARMACOLOGICAL METHODS, 24, pp 1-35, 1990. Peripheral blood pressure was monitored by a pressure sensor in the carotid artery.

[9] = test system: Kalhikrein; test: IC50 against kallikrein; type: biochemical
[10] = test system: 111indium-labelled platelets; test: Deposition of 111indium-labelled platelets after intravenous dose; type: in vivo, New Zealand white rabbits; details: 1 mg/kg i.v. dose
Text: M. Hero, K. D. Butler, C. […] Peripheral blood pressure was monitored by a pressure sensor in the carotid artery.

[11] = molecular target: T2, bovine thrombin in citrated normal human plasma (Bos taurus, UniProt P00735); test: Plasma thrombin time (TT), in vitro; type: biochemical; details: inhibitor concentration that caused a doubling of the thrombin time
T2 construct: freshly prepared bovine thrombin (5 NIHu/ml saline)
Method: as §3, §4

[12] = molecular target: Plasmin (Homo sapiens, UniProt P00747); test: IC50 against plasmin; type: biochemical
Chain of Plasmin (P00747 97-580 limits assumed, species assumed): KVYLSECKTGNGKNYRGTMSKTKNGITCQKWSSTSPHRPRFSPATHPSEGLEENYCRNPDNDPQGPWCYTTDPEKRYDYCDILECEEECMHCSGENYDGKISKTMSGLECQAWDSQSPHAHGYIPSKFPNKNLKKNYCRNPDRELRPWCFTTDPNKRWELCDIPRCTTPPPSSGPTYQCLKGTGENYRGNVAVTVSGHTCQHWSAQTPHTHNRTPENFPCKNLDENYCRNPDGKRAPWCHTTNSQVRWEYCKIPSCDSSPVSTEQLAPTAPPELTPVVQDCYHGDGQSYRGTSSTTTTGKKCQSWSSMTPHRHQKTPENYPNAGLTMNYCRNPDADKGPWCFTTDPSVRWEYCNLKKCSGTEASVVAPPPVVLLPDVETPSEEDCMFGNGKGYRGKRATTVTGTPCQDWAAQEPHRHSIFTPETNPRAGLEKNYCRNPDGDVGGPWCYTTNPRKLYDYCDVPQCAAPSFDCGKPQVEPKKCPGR
Chain of Plasmin (P00747 581-810 limits assumed, species assumed): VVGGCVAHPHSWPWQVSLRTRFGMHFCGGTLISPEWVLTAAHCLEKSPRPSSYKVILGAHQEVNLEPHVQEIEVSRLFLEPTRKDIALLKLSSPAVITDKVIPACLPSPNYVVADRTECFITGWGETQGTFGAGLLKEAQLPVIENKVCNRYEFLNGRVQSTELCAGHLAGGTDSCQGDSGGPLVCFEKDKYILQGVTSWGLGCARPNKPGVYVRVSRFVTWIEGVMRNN

[13] = no incubation, read-out: IC50 No Incubations
[14] = human α-thrombin, S-2238, 37° C.

N=C(N)NCCCC(NC(=O)C1CCCN1C(=O)C(N)C(c1ccccc1)c1ccccc1)C(=O)CCC(=O)N1CCCCC1.O=C(O)C(F)(F)F.O=C(O)C(F)(F)F [Compound 6, D-Dpa-Pro-Arg--k--Gly-Pip]
IC50 [1, 13]: 0.2 µM
Ki [2]: 0.2 µM
IC50 ([3]; single value given, incubation not given, read-out: Xa no inc/inc): 149 µM
APTT [4]: 8.0 µM
EX-VIVO T.T. ([5]; time 0 min): 24.4 and 25.6 and 32.9 and 27.9
EX-VIVO T.T. ([5]; time 1 min): 176 and 200 and 260 and >200
EX-VIVO T.T. ([5]; time 10 min): 55 and 61.4 and 76 and 57.5
EX-VIVO T.T. ([5]; time 30 min): 33 and 36.9 and 62 and 36
EX-VIVO T.T. ([5]; time 60 min): 25 and 27.9 and 49 and 31.5
EX-VIVO A.P.T.T. ([6]; time 1 min): 46 and 78
EX-VIVO A.P.T.T. ([6]; time 10 min): 32 and 55
EX-VIVO A.P.T.T. ([6]; time 30 min): 34 and 57
EX-VIVO A.P.T.T. ([6]; time 60 min): 27 and 42
IC50 ([7]; single value given, incubation not given, read-out: Urokinase no inc/inc): 494 µM
BLOOD PRESSURE Δ% of NORM [8]: NONE
IC50 ([9]; single value given, incubation not given, read-out: Kalhikrein no inc/inc): 199 µM
PLATELET ACCUMULATION (% OF NORMAL) LEG [10]: NONE
PLATELET ACCUMULATION (% OF NORMAL) LUNG [10]: NONE
TT [11]: 0.65 µM
IC50 ([12]; single value given, incubation not given, read-out: Plasmin no inc/inc): > 157 µM

N=C(N)NCCCC(NC(=O)C1CCCN1C(=O)C(N)C(c1ccccc1)c1ccccc1)C(=O)CCC(=O)N1CCCCC1.O=C(O)C(F)(F)F.O=C(O)C(F)(F)F (stereo not drawn) [Compound 7, L,Dpa-Pro-Arg--k--Gly-Pip]
Ki [2]: 1.7 µM
APTT [4]: 100.0 µM
TT [11]: 7.5 µM

N=C(N)NCCCC(NC(=O)C1CCCN1C(=O)C(N)Cc1ccc2ccccc2c1)C(=O)CCC(=O)N1CCCCC1 [Compound 54, D-β-Nal-Pro-Arg--k--Gly-Pip]
Ki [2, 14]: 2.87 µM
APTT [4]: 45.0 µM
TT [11]: 5.3 µM

N=C(N)NCCCC(NC(=O)C1CCCN1C(=O)C(N)C(c1ccccc1)c1ccccc1)C(=O)CCC(=O)N1CCCCC1 (mixture of isomers) [Compound 4, D,L-Dpa-Pro-Arg--k--Gly-Pip]
Ki [2]: 0.6 µM
APTT [4]: 45.0 µM

COCCCC(NC(=O)[C@@H]1CCCN1C(=O)[C@H](N)C(c1ccccc1)c1ccccc1)P(=O)(Oc1ccccc1)Oc1ccccc1 (stereo partly drawn) [Compound 32, H-D-Dpa-Pro-Mpg^P(OPh)2]
IC50 [1, 13]: 1.48 µM
IC50 ([1]; with incubation, read-out: IC50 Inc.): 0.00235 µM
Ki [2, 14]: 0.0048 µM
IC50 ([3]; no incubation (first value of cell), read-out: Xa no inc): 39.7 µM
IC50 ([3]; with incubation (second value of cell), read-out: Xa inc): > 18.7 µM
IC50 ([7]; no incubation (first value of cell), read-out: Urokinase no inc): 83 µM
IC50 ([7]; with incubation (second value of cell), read-out: Urokinase inc): > 18.7 µM
IC50 ([9]; no incubation (first value of cell), read-out: Kalhikrein no inc): 66.7 µM
IC50 ([9]; with incubation (second value of cell), read-out: Kalhikrein inc): > 18.7 µM
TT [11]: 9.1 µM
IC50 ([12]; no incubation (first value of cell), read-out: Plasmin no inc): > 187 µM
IC50 ([12]; with incubation (second value of cell), read-out: Plasmin inc): 3.32 µM

— patent publication US6387881B1, “Inhibitors and substrates of thrombin” (priority 1992, dated 2002)
